Structures can show the parent of a compound that is named as a salt.
The compounds below were run against T1, ABCG2 (Homo sapiens, UniProt Q9UNQ0) (assay: Bioluminescence imaging (BLI) assay in HEK293/ABCG2/fLuc cells). Conditions: not given.
T1 sequence (Q9UNQ0 1-655): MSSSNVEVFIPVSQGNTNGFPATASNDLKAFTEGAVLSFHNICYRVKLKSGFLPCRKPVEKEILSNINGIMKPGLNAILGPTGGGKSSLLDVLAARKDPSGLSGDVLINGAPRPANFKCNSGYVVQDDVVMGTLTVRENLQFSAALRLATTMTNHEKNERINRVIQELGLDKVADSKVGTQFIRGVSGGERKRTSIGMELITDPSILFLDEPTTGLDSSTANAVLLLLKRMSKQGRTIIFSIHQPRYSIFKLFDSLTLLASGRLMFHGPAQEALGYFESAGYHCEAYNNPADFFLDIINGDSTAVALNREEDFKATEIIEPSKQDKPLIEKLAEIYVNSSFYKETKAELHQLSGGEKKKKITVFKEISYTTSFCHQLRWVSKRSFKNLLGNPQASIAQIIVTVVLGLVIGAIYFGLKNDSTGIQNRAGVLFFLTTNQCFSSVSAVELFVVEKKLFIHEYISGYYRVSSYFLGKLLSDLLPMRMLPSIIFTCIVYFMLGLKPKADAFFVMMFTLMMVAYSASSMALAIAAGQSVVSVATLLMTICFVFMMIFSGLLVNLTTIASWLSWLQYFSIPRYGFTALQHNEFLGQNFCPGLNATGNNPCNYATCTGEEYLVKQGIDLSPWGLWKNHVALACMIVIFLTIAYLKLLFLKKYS
Method: HEK293/ABCG2/fLuc cells were plated into 96-well plates at a density of 4×10^4 cells/100 μL per well and were allowed to attach overnight. The following day, 10 μL of each compound or the control solvent was transferred from a compound library in a 96-well, high-throughput format into the wells using a multichannel pipette. […] Images were taken every 5 minutes for ˜1 h. Light output from each well was quantified at the 40 min time point after initiation of imaging, and the signal-to-background (S/B) ratio of the light output from each compound divided by that from the control well was calculated. This S/B ratio serves as an indicator of the potency of ABCG2 inhibition, the mechanism by which BLI signal is enhanced.
Images were taken every 5 min for ˜1 h, and light output from each well at the 40 min time point was chosen for quantification. The SB ratio of the light output from each compound divided by that from the control well was calculated. This ratio was used as an indicator of the potency of ABCG2 inhibition, the mechanism by which BLI signal is enhanced.
The BLI signal-enhancing effect of selected ABCG2 inhibitors was evaluated within the range of 0.001 μM-100 μM, with HEK293/ABCG2/fLuc cells and 50 μg/mL D-luciferin. The data obtained at 40 min after imaging commencement were chosen arbitrarily to be plotted (FIG. 3).

Compound | BLI signal enhancement at lower concentrations | Fold (BLI enhancement, S/B ratio over control)
CNc1ccc2oc(C[C@H]3O[C@@]4(CC[C@H]3C)O[C@H]([C@H](C)C(=O)c3ccc[nH]3)[C@H](C)C[C@H]4C)nc2c1C(=O)O [calcimycin] | enhance BLI signal minimally | –
CS(=O)(=O)O.O=C(O[C@H]1C[C@H]2CC3C[C@@H](C1)N2CC3=O)c1c[nH]c2ccccc12 [dolasetron mesylate] | – | 3.0 fold

Same assay, conditions: BLI screen, approximately 17 μM, 40 min

Compound | BLI signal enhancement
COc1ccc(-c2cc(=O)c3c(O)cc(O)cc3o2)cc1 [acacetin] | 1.8 fold

Same assay, conditions: Table 2; HEK293/ABCG2/fLuc cells, compound approximately 17 μM, ~50 μg/mL D-luciferin, 40 min time point

Compound | Fold (BLI enhancement, S/B ratio over control)
O=C(O)CCCc1ccccc1 [phenylbutyric acid] | 2.1 fold
COc1ccc(CCN(C)CCCC(C#N)(c2cc(OC)c(OC)c(OC)c2)C(C)C)cc1OC (stereo not shown) [gallopamil] | 2.4 fold
Cc1c2ccncc2c(C)c2c1[nH]c1ccccc12 [ellipticine] | 2.5 fold
O=C(Nc1ccccc1)c1ccccc1O [salicylanilide] | 2.2 fold
CN1[C@@H]2CC[C@H]1C[C@@H](OC(c1ccccc1)c1ccccc1)C2.CS(=O)(=O)O [benztropin Methane-] | 2.0 fold
C=C(C)[C@]12C[C@@H](C)[C@@]34O[C@](Cc5ccccc5)(O[C@@H]1[C@@H]3C=C(COC(=O)Cc1ccc(O)c(OC)c1)C[C@]1(O)C(=O)C(C)=C[C@@H]41)O2 [resiniferatoxin] | 4.2 fold
hesperidin methyl chalcone | 2.1 fold

Same assay, conditions: Table 5; approximately 17 μM, 40 min time point

Compound | fold (BLI enhancement), additional previously known ABCG2 inhibitors
COc1ccc(-c2cc(=O)c3c(O)cc(O)cc3o2)cc1 [acacetin] | 1.8 fold

Same assay, conditions: human

Compound | Fold (BLI enhancement, S/B ratio over control)
CC[C@@]1(O)C[C@H](O[C@H]2C[C@H](N(C)C)[C@H](O)[C@H](C)O2)c2c(cc3c(c2O)C(=O)c2c(O)cccc2C3=O)[C@H]1C(=O)OC [aklavine hydrochloride] | 2.5 fold
CC[C@@]1(O)C[C@H](O[C@H]2C[C@H](N(C)C)[C@H](O[C@H]3C[C@H](O)[C@H](O[C@H]4CCC(=O)[C@H](C)O4)[C@H](C)O3)[C@H](C)O2)c2c(cc3c(c2O)C(=O)c2c(O)cccc2C3=O)[C@H]1C(=O)OC [aclarubicin] | 3.5 fold
CC1=NCCc2c1[nH]c1cc(O)ccc21.Cl [harmalol hydrochloride] | 2.9 fold

Same assay, conditions: human, 40 min, 17 μM

Compound | Fold (BLI enhancement, S/B ratio over control) | fold (BLI enhancement), additional previously known ABCG2 inhibitors | Fold (BLI enhancement), previously unknown compounds | Fold (BLI enhancement), known compounds
CCC(=O)OCC(=O)[C@@]1(OC(=O)CC)[C@@H](C)C[C@H]2[C@@H]3CCC4=CC(=O)C=C[C@]4(C)[C@@]3(Cl)[C@@H](O)C[C@@]21C [beclomethasone dipropionate] | 3.2 fold | – | – | –
C[C@]12CC[C@@H]3c4ccc(O)cc4CC[C@H]3[C@@H]1CCC2=O [estrone] | – | 4.1 fold | – | –
CCN(CC)Cc1cc(Nc2ccnc3cc(Cl)ccc23)ccc1O [amodiaquin] | 3.8 fold | – | – | –
CCOC(=O)C1=C(C)NC(C)=C(C(=O)OC)C1c1cccc(Cl)c1Cl (stereo not shown) [felodipine] | 3.0 fold | – | – | –
Nc1c2ccccc2nc2ccccc12 [aminacrine] | 2.9 fold | – | – | –
COC(=O)[C@H]1[C@H]2C[C@H]3c4[nH]c5cc(OC)ccc5c4CCN3C[C@H]2C[C@@H](OC(=O)c2cc(OC)c(OC)c(OC)c2)[C@@H]1OC [isoreserpine] | 6.2 fold | – | 6.2 fold | –
OCCN1CCN(CCCN2c3ccccc3Sc3ccc(C(F)(F)F)cc32)CC1 [fluphenazine] | 2.0 fold | – | – | –
Cc1ccc(-c2cc(C(F)(F)F)nn2-c2ccc(S(N)(=O)=O)cc2)cc1 [celecoxib] | 2.2 fold | – | – | –
CC(C)(O/N=C(\C(=O)N[C@@H]1C(=O)N2C(C(=O)[O-])=C(C[n+]3ccccc3)CS[C@H]12)c1csc(N)n1)C(=O)O [ceftazidime] | 2.5 fold | – | – | –
COc1cc([S+](C)[O-])ccc1-c1nc2ncccc2[nH]1 (stereo not shown) [sulmazole] | 3.0 fold | – | – | –
Cc1nccn1CC1CCc2c(c3ccccc3n2C)C1=O (stereo not shown) [ondansetron hydrochloride] | 2.7 fold | – | – | –
NCCS [mercaptamine hydrochloride] | 2.2 fold | – | – | –
O=c1[nH]c(=O)n([C@H]2C[C@H](O)[C@@H](CO)O2)cc1F [floxuridine] | 2.2 fold | – | – | –
N#Cc1ccc2c(c1)N(CCCN1CCC(O)CC1)c1ccccc1S2 [periciazine] | – | – | 6.3 fold | –
O=c1[nH]c2ccccc2n1C1CCN(CCCC(c2ccc(F)cc2)c2ccc(F)cc2)CC1 [pimozide] | 2.0 fold | – | – | –
COc1cc(N)c(Cl)cc1C(=O)NC1CCN(Cc2ccccc2)CC1 [clebopride] | 6.7 fold | – | 6.7 fold | –
O=C1c2ccc(O)c(O)c2C(=O)c2c(O)ccc(O)c21 [quinalizarin] | 3.0 fold | – | – | –

Compound | Fold (BLI enhancement, S/B ratio over control) | fold (BLI enhancement), additional previously known ABCG2 inhibitors | Fold (BLI enhancement), previously unknown compounds | Fold (BLI enhancement), known compounds
Cc1ccc(C(=O)C(C)CN2CCCCC2)cc1 (stereo not shown) [tolperisone hydrochloride] | 2.1 fold | – | – | –
C=CC1=C(C(=O)O)N2C(=O)[C@@H](NC(=O)/C(=N\OCC(=O)O)c3csc(N)n3)[C@H]2SC1 [citropen] | 4.3 fold | – | – | –
CN1CCCC(n2nc(Cc3ccc(Cl)cc3)c3ccccc3c2=O)CC1 (stereo not shown) [azelastine hydrochloride] | 2.4 fold | – | – | –
CCN(CC)CCNc1ccc(CO)c2sc3ccccc3c(=O)c12 [hycanthone] | 2.5 fold | – | – | –
COC(=O)C1=C(C)NC(C)=C(C(=O)OCC(C)C)C1c1ccccc1[N+](=O)[O-] (stereo not shown) [nisoldipine] | 3.2 fold | – | – | –
CCCCC(=O)O[C@]1(C(=O)CO)[C@@H](C)C[C@H]2[C@@H]3CCC4=CC(=O)C=C[C@]4(C)[C@@]3(F)[C@@H](O)C[C@@]21C [betamethasone valerate] | 2.6 fold | – | – | –
O=c1c(O)c(-c2ccc(O)cc2)oc2cc(O)cc(O)c12 [kaempferol] | 4.3 fold | – | – | –
COc1cc(O)c2c(c1)C(=O)c1cc(C)cc(O)c1C2=O [physcion] | 2.1 fold | – | – | –
Cc1c(O)cccc1C(=O)N[C@@H](CSc1ccccc1)[C@H](O)CN1C[C@H]2CCCC[C@H]2C[C@H]1C(=O)NC(C)(C)C [nelfinavir mesylate] | 6.1 fold | – | – | 6.1 fold
OCCN1CCN(CCCN2c3ccccc3Sc3ccc(Cl)cc32)CC1 [perphenazine] | 4.2 fold | – | – | –
C#C[C@]1(O)CC[C@H]2[C@@H]3CCc4cc(O)ccc4[C@H]3CC[C@@]21C [ethinyl estradiol] | 2.4 fold | – | – | –
Brc1c(NC2=NCCN2)ccc2nccnc12 [brimonidine] | 3.4 fold | – | – | –
CC(C)(C)NC(=O)[C@@H]1C[C@@H]2CCCC[C@@H]2CN1C[C@@H](O)[C@H](Cc1ccccc1)NC(=O)[C@H](CC(N)=O)NC(=O)c1ccc2ccccc2n1 [saquinavir mesylate] | 4.9 fold | 4.9 fold | – | –
CCCCCCn1c(=O)c2c(ncn2C)n(C)c1=O [pentifylline] | 3.8 fold | – | – | –
CO[C@]12C[C@@H](COC(=O)c3cncc(Br)c3)CN(C)[C@@H]1Cc1cn(C)c3cccc2c13 [nicergoline] | 2.0 fold | – | – | –
O=C1CCc2cc(OCCCCc3nnnn3C3CCCCC3)ccc2N1 [cilostazol] | 3.8 fold | – | – | –
CN(C)CCOc1ccc(/C(=C(/CCCl)c2ccccc2)c2ccccc2)cc1 [toremifene] | 2.3 fold | – | – | –
